# Results reported in patent US12213959B2, “Use of 3-O-sulfamoyloxy-7β-methyl-d-homo-6-oxaestra-1,3,5(10),8(9)-tetraen-17a-one to treat breast cancer” (priority 2018, dated 2025).
# Several values for one entry are separate records, joined by “and”; a condition that tells them apart may be missing. Equal entries are not always repeated.
# Tests used:
# [1] = tested on: MCF-7 human cells culture (breast adenocarcinoma); assay: Proliferative activity of MCF-7 cells; format: cell-based; conditions: 20 μg/ml
# Description: The study analysis was carried out on an passaged MCF-7 human cells culture culture (breast adenocarcinoma). Normal human dermal fibroblasts (HDF) of early passages were used as a negative control.
# The cells were cultivated in Carrel vials in DMEM/F12 medium (Biolot) with 1.0% of antibiotic-free fetal bovine embryonic serum (Biolot) added in the 5% CO2 atmosphere, at 37° C.
# The cells were seeded on Carrel vials at 50×10^4 cells per flask. To study the proliferative activity of the cells under conditions of sulfatase inhibition, 24 hours after seeding the culture medium […], and then these tumor cell lines were incubated for various periods of time (24 to 72 hrs). The inhibitor was dissolved in DMSO. […] To exclude the cytotoxic effect of DMSO, a control sample comprising DMSO without sulfatase inhibitor was prepared.
# To exclude nonspecific detrimental effects of the compounds, normal human skin fibroblasts were used. Then the cells were detached with the versene-trypsin solution (Biolot), plated onto Carrel vials containing a fresh complete culture medium. The cells were counted when untreated control cells reached the maximum cell density per unit of surface area of a culture flask (monolayer), and their number was set as 100%. The proliferative activity of all of the studied cell cultures exposed to sulfatase inhibitors was determined in triplicate.
# [2] = tested on: MDA-MB-231 cell line of triple negative breast cancer; assay: Cell growth inhibition on MDA-MB-231; format: cell-based; conditions: Homo sapiens
# [3] = Acute oral toxicity, OECD 423 test; format: in vivo; conditions: for Body weight of individual mice: in g (unit assumed)
# Description: 12 female mice were used in the experiment.
# The dosage form for the administration was prepared ex tempore.
# No deaths were detected either.
# Further the observations were made once per day.
# The medicament was administered in 2 steps with a break of 3 hours in a volume of 0.1 ml per 10 g of a body weight per step at the concentration of […], because the suspension in oil is thicker at higher concentrations and precludes the medicament to be administered through a gavage. […] Regardless of the group the width of the palpebral fissure of the animals was almost unchanged during the entire observation period. No pathological discharges from the eyes were detected. The nose was pink, moderately moist without pathological discharges. The fur of all mice was neat and shiny without bald spots. A 1% decrease of the animals body weight was registered on Day 2 and a 6% weight decrease on Day 7 from the initial weight (Table 3).
# [4] = Body weight and tolerability during the antitumour study
# Description: The study medicament was administered i.g. using a metal atraumatic gavage (with the procedure corresponds to the oral route of administration in clinical settings). […] Ex tempore solutions of the medicament for administration were prepared in olive oil (refined olive oil supplemented with unrefined extra virgin olive oil available under Global Village “Clasico” trademark, lot L:183351116, expiry date 26.04.2020, BAIEO, Spain). The administered volume was 0.1 ml per 10 g of a mouse body weight (0.2 ml of a ready-to-use formulation for a mouse of 20 g). The medicament administration was started 24 hours after the randomization. Duration of the administration course was 27-28 days.
# This dose corresponds to a human daily dose of 20 mg/kg.
# The evaluation criteria included the clinical observation data, animals body weights, time of death (if applicable), tumor growth over time, pathomorphological examination data (verification of a neoplasm during autopsy, assessment of toxic effects by macroscopic presentation of changes in the internal organs).
# The animals body weights were recorded before the first administration of the medicaments and then twice per week using a verified high-speed electronic laboratory balance Ohaus Scout Pro (USA) with a maximum load of 2000 g and a measurement pitch of 0.1 g.
# uterine body = assay: Hormonal effects on the uterine body (uterine weight); format: in vivo, mice; conditions: for Uterine weight: end of observation
# Description: The hormonal effects of the medicament on the uterine body was analyzed by comparing the uterine weight without uterine horns at the end of the observation period (Table 13).
# [5] = tested on: inoculated human tumour of triple-negative breast cancer; assay: Animal models with inoculated human triple-negative breast cancer tumour; conditions: in vivo
# [6] = 300 mg/kg, Day 1 (before administration)
# [7] = 2000 mg/kg, Day 1 (before administration)
compound,measurement,setting,value
"C[C@H]1Oc2cc(OS(N)(=O)=O)ccc2C2=C1[C@@H]1CCCC(=O)[C@@]1(C)CC2 [medicament, 3-O-sulfamoyloxy-7β-methyl-O-homo-6-oxaestra-1,3,5(10),8(9)-tetraen]",proliferation of MCF-7 tumour cells,[1],completely blocks
same,IC50,[2],4.8 µM
same,visual signs of intoxication,"[3]; 300 mg/kg i.g., entire observation period",None of the animals exhibited visual signs of intoxication
same,Average body weight,[3]; [6],27.4 g
same,Body weight of individual mice,[3]; [6],26.4 and 29.6 and 26.0 and 27.0 and 28.0 and 27.5
same,Average body weight,"[3]; 300 mg/kg, Day 2",27.1 g
same,"Average body weight, % from baseline","[3]; 300 mg/kg, Day 2",−1%
same,average body weight decrease,"[3]; 300 mg/kg, Day 2",1%
same,Body weight of individual mice,"[3]; 300 mg/kg, Day 2",26.8 and 24.2 and 26.5 and 25.2 and 27.3 and 27.6
same,Average body weight,"[3]; 300 mg/kg, Day 7",27.6 g
same,"Average body weight, % from baseline","[3]; 300 mg/kg, Day 7",1%
same,Body weight of individual mice,"[3]; 300 mg/kg, Day 7",27.0 and 29.4 and 27.4 and 25.6 and 28.2 and 28.0
same,Average body weight,"[3]; 300 mg/kg, Day 14",28.1 g
same,"Average body weight, % from baseline","[3]; 300 mg/kg, Day 14",2%
same,Body weight of individual mice,"[3]; 300 mg/kg, Day 14",27.0 and 29.8 and 29.3 and 26.0 and 27.9 and 28.4
same,clinical signs of intoxication,[3]; 2000 mg/kg i.g.,No clinical signs of intoxication were observed
same,Average body weight,[3]; [7],26.2 g
same,Body weight of individual mice,[3]; [7],28.4 and 25.0 and 26.6 and 24.0 and 26.7 and 26.4
same,Average body weight,"[3]; 2000 mg/kg, Day 2",26.1 g
same,"Average body weight, % from baseline","[3]; 2000 mg/kg, Day 2",−1%
same,decrease of body weight from the initial weight,"[3]; 2000 mg/kg, Day 2",1%
same,Body weight of individual mice,"[3]; 2000 mg/kg, Day 2",27.9 and 25.5 and 26.5 and 25.2 and 27.3 and 27.0
same,Average body weight,"[3]; 2000 mg/kg, Day 7",24.7 g
same,"Average body weight, % from baseline","[3]; 2000 mg/kg, Day 7",−6%
same,decrease of body weight from the initial weight,"[3]; 2000 mg/kg, Day 7",6%
same,Body weight of individual mice,"[3]; 2000 mg/kg, Day 7",24.7 and 24.5 and 25.1 and 25.6 and 28.2 and 25.7
same,Average body weight,"[3]; 2000 mg/kg, Day 14",26.3 g
same,Body weight of individual mice,"[3]; 2000 mg/kg, Day 14",28.3 and 24.9 and 26.4 and 26.0 and 27.9 and 27.0
same,macroscopic changes of internal organs at autopsy,[3]; Day 15,no changes of the internal organs were detected
same,hazard category,[3]; OECD 423,5th or unclassified category and 5th or non-classified category
same,hazard category,"[3]; OECD 423, listed as anti-cancer agent",5th hazard category
same,LD50 at 14 days,"[3]; female, FVB transgenic for HER-2/neu, mouse, in vivo, po, oral (i.g.), mice, OECD 423",≥ 5000 mg/kg
same,LD50,"[3]; oral (i.g.), mice, OECD 423, listed as anti-cancer agent",> 5000 mg/kg
same,signs of toxic damage to the internal organs at autopsy,[4]; end of the experiment,no specific signs of toxic damage to the internal organs
same,clinical signs of toxicity,"[4]; mouse, in vivo",no clinical signs of toxicity being observed
same,uterine weight differences as compared to the control group,uterine body; dose range from 2.0 to 100 mg/kg,No statistically significant differences
same,Uterine weight,"uterine body; medicament 2 mg/kg, All mice",37 ± 6 MI
same,Uterine weight,"uterine body; medicament 2 mg/kg, estrous cycle phase D",24 ± 7 MI
same,Uterine weight,"uterine body; medicament 2 mg/kg, estrous cycle phase E",53 ± 3 MI
same,Uterine weight,"uterine body; medicament 20 mg/kg, All mice",50 ± 4 MI
same,Uterine weight,"uterine body; medicament 20 mg/kg, estrous cycle phase D",45 ± 13 MI
same,Uterine weight,"uterine body; medicament 20 mg/kg, estrous cycle phase E",53 ± 4 MI
same,Uterine weight,"uterine body; medicament 100 mg/kg, All mice",52 ± 5 MI
same,Uterine weight,"uterine body; medicament 100 mg/kg, estrous cycle phase D",34 ± 13 MI
same,Uterine weight,"uterine body; medicament 100 mg/kg, estrous cycle phase E",56 ± 5 MI
same,uterotropic activity,"uterine body; mouse, in vivo",no uterotropic activity
same,action compared with Tamoxifen and Letrozole,[5],better action than that of the clinically used Tamoxifen and an aromatase inhibitor Letrozole
